Results reported in ChEMBL document CHEMBL6153167, “Development of the Pyrido[2,3-d]pyrimidin-7(8H)-one Scaffold toward Potent and Selective NUAK1 Inhibitors” (ACS Med Chem Lett, 2025).

Columns and labels:
[1] = Protein binding in mouse plasma assessed as fraction unbound at 10 uM incubated for 6 hrs with rotation by dialysis based LC-MS/MS analysis; assay type: ADME, cell-free
[2] = Unbound brain-to-plasma concentration ratio (Kp,uu, brain) in ICR mouse at 2.5 mg/kg, iv and measured upto 6 hrs by LC-MS/MS analysis; assay type: ADME, organism-based; details: read-out: K(p,uu,brain)
[3] = Selectivity ratio of IC50 for inhibition of MARK3 (unknown origin) to IC50 for inhibition of NUAK1 (unknown origin)

Row | Structure (SMILES) | fraction unbound at 6 h, 10 µM [1] | Kp uu at 6 h [2] | Ratio IC50 [3]
1 | CN1CCN(c2ccc(Nc3ncc4cc(C#N)c(=O)n(C5CCCC5)c4n3)cc2)CC1 [NARAZACICLIB] | 0.006 | 0.036 | 
2 | Cc1cc(=O)n(C2CCCC2)c2nc(Nc3ccc(N4CCNCC4)cc3)ncc12 |  |  | > 11
3 | CN1C2CC1CN(c1ccc(Nc3ncc4ccn(CC5CCOCC5)c4n3)cc1)C2 |  |  | 2000
4 | CC(C)N1CCN(c2ccc(Nc3ncc4ccn(CC5CCOC(C)(C)C5)c4n3)cc2)CC1 (stereo not given) |  |  | 2290
